1 compound from patent publication US8765669B2, “Glycosylated GLP-1 peptide” (Glytech, Inc., priority 2008, dated 2014) can be followed below.

The test system of one series is C57BL/6JJcl mice. Put plainly: Oral Glucose Tolerance Test (OGTT). Format: in vivo. The protocol: After 30 minutes, a glucose solution was orally administered at a dose of 1 mg/g. Blood was collected from the orbits before the glucose administration and 30 minutes, 60 minutes and 120 minutes after the glucose administration. Blood-sugar levels were measured using ACCU-CHEK Aviva (Roche Diagnostics). In the drawings below, for example, “26,34Cys GLP-1-disialo”, which is an oligosaccharide chain added GLP-1 peptide wherein amino acids at positions 26 and 34 of GLP-1 are each substituted with disialo oligosaccharide chain added Cys, is referred to as “C26,C34”, if necessary. The same holds true for other oligosaccharide chains and amino acid sites.
Next, 18,36Cys GLP-1-disialo and GLP-1 were evaluated by OGTT using doses of 1/10 (0.9 nmol/kg) and 9 nmol/kg, respectively, and compared.

The target in series [1] is T1, DPP-IV (dipeptidyl peptidase IV from porcine kidney) (Sus scrofa, UniProt P22411).
T1 construct: dipeptidyl peptidase IV from porcine kidney, product of SIGMA; purchased SIGMA; host or cells: porcine kidney (tissue-derived enzyme)
Put plainly: Test of resistance to dipeptidyl peptidase IV (DPP-IV). Format: in vitro ADME. The conditions noted are these: half-life (t1/2) in DPP-IV solution at 37° C., GLP-1 of Comparative Example 1 defined as standard (=1). Here is the method:
Each solution mixture was adjusted with 100 mM sodium phosphate buffer to 100 μl in total and allowed to react at 37° C. A 10 μaliquot of the reaction solution was mixed with 15 μl of 10% trifluoroacetic acid prepared in advance in another Eppendorf tube.

T1 sequence (P22411 whole entry): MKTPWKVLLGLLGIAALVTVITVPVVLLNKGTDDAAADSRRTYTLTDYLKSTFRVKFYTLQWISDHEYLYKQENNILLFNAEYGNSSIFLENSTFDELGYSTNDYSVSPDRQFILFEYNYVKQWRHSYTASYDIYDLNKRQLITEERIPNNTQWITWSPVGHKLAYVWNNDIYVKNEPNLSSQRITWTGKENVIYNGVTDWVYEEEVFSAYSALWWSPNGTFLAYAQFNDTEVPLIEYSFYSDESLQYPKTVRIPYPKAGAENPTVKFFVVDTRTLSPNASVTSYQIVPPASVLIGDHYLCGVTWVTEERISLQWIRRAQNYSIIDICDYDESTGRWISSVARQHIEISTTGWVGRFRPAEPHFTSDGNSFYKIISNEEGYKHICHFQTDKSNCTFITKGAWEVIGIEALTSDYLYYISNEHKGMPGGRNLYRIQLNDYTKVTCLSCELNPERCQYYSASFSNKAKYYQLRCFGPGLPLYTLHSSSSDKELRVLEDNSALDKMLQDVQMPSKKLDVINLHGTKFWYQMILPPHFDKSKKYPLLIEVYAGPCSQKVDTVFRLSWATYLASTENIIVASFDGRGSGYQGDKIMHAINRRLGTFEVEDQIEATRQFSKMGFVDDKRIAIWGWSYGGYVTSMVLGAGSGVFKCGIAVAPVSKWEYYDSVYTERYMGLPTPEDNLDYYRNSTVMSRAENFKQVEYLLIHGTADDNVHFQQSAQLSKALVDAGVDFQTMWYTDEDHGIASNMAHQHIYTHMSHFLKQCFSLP

Regarding `CC[C@H](C)[C@H](NC(=O)[C@H](Cc1ccccc1)NC(=O)[C@H](CCC(=O)O)NC(=O)[C@H](CCCCN)NC(=O)[C@H](C)NC(=O)[C@H](C)NC(=O)[C@H](CCC(N)=O)NC(=O)CNC(=O)[C@H](CCC(=O)O)NC(=O)[C@H](CC(C)C)NC(=O)[C@H](Cc1ccc(O)cc1)NC(=O)[C@H](CSCC(=O)N[C@@H]1O[C@H](CO)[C@@H](O[C@@H]2O[C@H](CO)[C@@H](O[C@@H]3O[C@H](CO[C@H]4O[C@H](CO)[C@@H](O)[C@H](O)[C@@H]4O[C@@H]4O[C@H](CO)[C@@H](O[C@@H]5O[C@H](CO[C@]6(C(=O)O)C[C@H](O)[C@@H](NC(C)=O)[C@H]([C@H](O)[C@H](O)CO)O6)[C@H](O)[C@H](O)[C@H]5O)[C@H](O)[C@H]4NC(C)=O)[C@@H](O)[C@H](O[C@H]4O[C@H](CO)[C@@H](O)[C@H](O)[C@@H]4O[C@@H]4O[C@H](CO)[C@@H](O[C@@H]5O[C@H](CO[C@]6(C(=O)O)C[C@H](O)[C@@H](NC(C)=O)[C@H]([C@H](O)[C@H](O)CO)O6)[C@H](O)[C@H](O)[C@H]5O)[C@H](O)[C@H]4NC(C)=O)[C@@H]3O)[C@H](O)[C@H]2NC(C)=O)[C@H](O)[C@H]1NC(C)=O)NC(=O)[C@H](CO)NC(=O)[C@@H](NC(=O)[C@H](CC(=O)O)NC(=O)[C@H](CO)NC(=O)[C@@H](NC(=O)[C@H](Cc1ccccc1)NC(=O)[C@@H](NC(=O)CNC(=O)[C@H](CCC(=O)O)NC(=O)[C@H](C)NC(=O)[C@@H](N)Cc1c[nH]cn1)[C@@H](C)O)[C@@H](C)O)C(C)C)C(=O)N[C@@H](C)C(=O)N[C@@H](Cc1c[nH]c2ccccc12)C(=O)N[C@@H](CC(C)C)C(=O)N[C@H](C(=O)N[C@@H](CCCCN)C(=O)NCC(=O)N[C@@H](CSCC(=O)N[C@@H]1O[C@H](CO)[C@@H](O[C@@H]2O[C@H](CO)[C@@H](O[C@@H]3O[C@H](CO[C@H]4O[C@H](CO)[C@@H](O)[C@H](O)[C@@H]4O[C@@H]4O[C@H](CO)[C@@H](O[C@@H]5O[C@H](CO[C@]6(C(=O)O)C[C@H](O)[C@@H](NC(C)=O)[C@H]([C@H](O)[C@H](O)CO)O6)[C@H](O)[C@H](O)[C@H]5O)[C@H](O)[C@H]4NC(C)=O)[C@@H](O)[C@H](O[C@H]4O[C@H](CO)[C@@H](O)[C@H](O)[C@@H]4O[C@@H]4O[C@H](CO)[C@@H](O[C@@H]5O[C@H](CO[C@]6(C(=O)O)C[C@H](O)[C@@H](NC(C)=O)[C@H]([C@H](O)[C@H](O)CO)O6)[C@H](O)[C@H](O)[C@H]5O)[C@H](O)[C@H]4NC(C)=O)[C@@H]3O)[C@H](O)[C@H]2NC(C)=O)[C@H](O)[C@H]1NC(C)=O)C(=O)NCC(=O)O)C(C)C` [Example 2, 18 and 36Cys-disialo oligosaccharide Chain Added GLP-1], the “effect of suppressing rise in blood-sugar levels” value in the series with C57BL/6JJcl mice (0.9 nmol/kg intraperitoneal, compared with GLP-1 at 9 nmol/kg, FIG. 5) is “almost equal effect of suppressing rise in blood-sugar levels to that of GLP-1”. In addition, in the series on C57BL/6JJcl mice (OGTT, from doses giving almost equal effect (0.9 vs 9 nmol/kg)), the “effect of suppressing rise in blood-sugar levels relative to that of GLP-1” value is “about 10 times”. Moreover, the “Relative Resistance” value in series [1] is listed as 128.6.
